PMC12195982, “Design, Synthesis, and In Vitro Evaluation of 4-(Arylchalcogenyl)methyl)-1H-1,2,3-triazol-1-yl-menadione: Exploring Their Potential Against Tuberculosis” (Pharmaceuticals, 2025)
≈ marks a conversion by molar mass, not a printed value. Where two headings read alike, the source gives them in different places.

What was measured:
Mtb = conditions: cited from earlier work
[1] = system: Mtb strain H37Rv ATCC 27294; assay: Microplate Alamar Blue Assay (MABA), susceptible strain; type: cell-based; conditions: Mycobacterium tuberculosis
VERO cell line = type: cell-based; conditions: for cytotoxicity: MTT method, VERO cell line
Description: First, a VERO cell line suspension was prepared and distributed into each of the 96 wells of the culture plate, which was then incubated for 48 h to allow the cells to adhere. After this period, the suspension medium was discarded, and the cells were exposed to the substances under study, leaving them in the wells for a period of between 24 and 48 h. After this, the substance was discarded, and the cells were washed with a buffer, with MTT being added, followed by a 3 h incubation. After this period, the MTT was discarded, and Dimethyl sulfoxide (DMSO) was added to solubilize the formazan crystals generated. Finally, the absorbance of each well of the plate was obtained using a microplate spectrophotometer. The absorbance was quantified based on the readings that the equipment makes, based on the different intensities of the purple color in the wells of the plate; the more purple the well, the more viable cells there are.

protein kinase B (PknB) = conditions: cited from earlier work
[2] = Mtb H37Rv, strain sensitive to all first- and second-line drugs, MABA, triplicate, read-out: MIC
[3] = as quoted in sections 2.2 and 2.3, strain not stated, read-out: MIC (antimycobacterial activity)

Row | SMILES | MIC [1, 2] | also measured
1 | O=C1NC(c2ccc(OCc3cn(-c4ccc(F)c(F)c4)nn3)cc2)Nc2ccccc21 (centres unmarked) [Compound 5] |  | MIC (Mtb; anti-TB action): 3.12 µg/mL (≈ 7.2 µM)
2 | C=CCC1[Se]c2ccccc2C1=O (centres unmarked) [Compound 1] |  | MIC (Mtb; anti-TB activity): 12.5 µg/mL (≈ 52.7 µM)
3 | C/C(=N/N=C1/NC(=O)CS1)c1ccc(-c2ccccc2)cc1 [Compound 2] |  | MIC (Mtb; anti-TB activity): 12.5 µg/mL (≈ 40.4 µM)
4 | CC1=C(Cn2cc(CSc3ccccc3)nn2)C(=O)c2ccccc2C1=O [Compound 10a, 2-methyl-3-((4-((phenylthiol)methyl)-1H-1,2,3-triazolyl)methyl)naphthalene-1,4-dione] | 100 µg/mL (≈ 267 µM) | 
5 | NNC(=O)c1ccncc1 [INH, isoniazid, reference compound] | 0.12 µg/mL (≈ 0.875 µM) | 
6 | CC1=C(C(c2ccc(C)cc2)n2cc(CSc3ccccc3)nn2)C(=O)c2ccccc2C1=O (centres unmarked) [Compound 10h, 2-methyl-3-((4-((phenylthiol)methyl)-1H-1,2,3-triazolyl)(p-methylphenyl)methyl)naphthalene-1,4-dione] | > 100 µg/mL | 
7 | NC(=O)c1cnccn1 [PZA, pyrazinamide, reference compound] | 100 µg/mL (≈ 813 µM) | 
8 | CC1=C(Cn2cc(CSCc3ccco3)nn2)C(=O)c2ccccc2C1=O [Compound 10e, 2-((4-(((furan-2-ylmethyl)thiol)methyl)-1H-1,2,3-triazolyl)methyl)-3-methylnaphthalene-1,4-dione] | > 100 µg/mL | 
9 | CC1=C(Cn2cc(C[Se]c3ccc(Cl)cc3)nn2)C(=O)c2ccccc2C1=O [Compound 9b, 2-((4-(((4-chlorophenyl)selanyl)methyl)-1H-1,2,3-triazolyl)methyl)-3-methylnaphthalene-1,4-dione] | 3.2 µg/mL (≈ 7.01 µM) | MIC [1, 3]: 3.2 µg/mL (≈ 7.01 µM); cytotoxicity (VERO cell line): minimal cytotoxicity; toxicity at concentrations of up to 100 µg/mL (VERO cell line): non-toxic
10 | CC1=C(C(C)n2cc(CSc3ccccc3)nn2)C(=O)c2ccccc2C1=O (centres unmarked) [Compound 10f, 2-methyl-3-(1-(4-((phenylthiol)methyl)-1H-1,2,3-triazolyl)ethyl)naphthalene-1,4-dione] | 100 µg/mL (≈ 257 µM) | 
11 | CC1=C(Cn2cc(C[Se]c3cccc(C(F)(F)F)c3)nn2)C(=O)c2ccccc2C1=O [Compound 9c] | ≤ 49.9 µg/mL | 
12 | CC1=C(Cn2cc(C[Se]c3c(C)cc(C)cc3C)nn2)C(=O)c2ccccc2C1=O [Compound 9d, 2-((4-((2,4,6-trimethyl-phenylselanyl)methyl)-1H-1,2,3-triazolyl)methyl)-3-methylnaphthalene-1,4-dione] | > 99.9 µg/mL | 
13 | CC1=C(Cn2cc(C[Se]c3ccc4ccccc4c3)nn2)C(=O)c2ccccc2C1=O [Compound 9e, 2-methyl-3-((4-((naphthalenylselanyl)methyl)-1H-1,2,3-triazolyl)methyl)naphthalene-1,4-dione] | 99.9 µg/mL (≈ 211 µM) | 
14 | CC1=C(C(C)n2cc(C[Se]c3ccccc3)nn2)C(=O)c2ccccc2C1=O (centres unmarked) [Compound 9f, 2-methyl-3-(1-(4-((phenylselanyl)methyl)-1H-1,2,3-triazolyl)ethyl)naphthalene-1,4-dione] | 6.23 µg/mL (≈ 14.3 µM) | MIC [1, 3]: > 43.6 µg/mL
15 | CC1=C(Cn2cc(CSc3ccc(Cl)cc3)nn2)C(=O)c2ccccc2C1=O [Compound 10b, 2-((4-(((4-chlorophenyl)thiol)methyl)-1H-1,2,3-triazolyl)methyl)-3-methylnaphthalene-1,4-dione] | > 100 µg/mL | 
16 | CC1=C(Cn2cc(CSc3ccc(C)cc3)nn2)C(=O)c2ccccc2C1=O [Compound 10c, 2-methyl-3-((4-((p-methylphenylthiol)methyl)-1H-1,2,3-triazolyl)methyl)naphthalene-1,4-dione] | > 100 µg/mL | 
17 | CC1=C(Cn2cc(CSc3ccccc3C)nn2)C(=O)c2ccccc2C1=O [Compound 10d, 2-methyl-3-((4-((o-methylphenylthiol)methyl)-1H-1,2,3-triazolyl)methyl)naphthalene-1,4-dione] | > 100 µg/mL | 
18 | O=C1NC(c2ccc(OCc3cn(-c4ccc(F)cc4F)nn3)cc2)Nc2ccccc21 (centres unmarked) [Compound 4] |  | MIC (Mtb; anti-TB action): 0.78 µg/mL (≈ 1.8 µM)
19 | CC1=C(C(c2ccc(C)cc2)n2cc(C[Se]c3ccccc3)nn2)C(=O)c2ccccc2C1=O (centres unmarked) [Compound 9h, 2-methyl-3-((4-((phenylselanyl)methyl)-1H-1,2,3-triazolyl)(p-methylphenyl)methyl) naphthalene-1,4-dione] | 24.9 µg/mL (≈ 48.7 µM) | cytotoxicity (VERO cell line): minimal cytotoxicity; toxicity at concentrations of up to 100 µg/mL (VERO cell line): non-toxic
20 | CC1=C(Cn2cc(C[Se]c3ccccc3)nn2)C(=O)c2ccccc2C1=O [Compound 9a, 2-methyl-3-((4-((phenylselanyl)methyl)-1H-1,2,3-triazolyl)methyl)naphthalene-1,4-dione] | 6.23 µg/mL (≈ 14.8 µM) | MIC [1, 3]: 6.76 µg/mL (≈ 16 µM); cytotoxicity (VERO cell line): minimal cytotoxicity; toxicity at concentrations of up to 100 µg/mL (VERO cell line): non-toxic
21 | CC1=C(C(c2ccccc2)n2cc(CSc3ccccc3)nn2)C(=O)c2ccccc2C1=O (centres unmarked) [Compound 10g, 2-methyl-3-(phenyl(4-((phenylthiol)methyl)-1H-1,2,3-triazolyl)methyl)naphthalene-1,4-dione] | > 100 µg/mL | 
22 | O=C1c2c(O)ccc(O)c2C(=O)c2c(NCCNCCO)ccc(NCCNCCO)c21 [co-crystallized ligand, 1,4-dihydroxy-5,8-bis({2-[(2-hydroxyethyl)amino]ethyl}amino)-9,10-anthracenedione] |  | IC50 (protein kinase B (PknB)): 800 nM
23 | CC1=C(C(c2ccccc2)n2cc(C[Se]c3ccccc3)nn2)C(=O)c2ccccc2C1=O (centres unmarked) [Compound 9g, 2-methyl-3-(phenyl(4-((phenylselanyl)methyl)-1H-1,2,3-triazolyl)methyl)naphthalene-1,4-dione] | 12.5 µg/mL (≈ 25.1 µM) | MIC [1, 3]: 3.12 µg/mL (≈ 6.26 µM); cytotoxicity (VERO cell line): minimal cytotoxicity; toxicity at concentrations of up to 100 µg/mL (VERO cell line): non-toxic
